{
  "source": "patent US10265346B2",
  "about": "“Trehalose-containing mammalian cell suspension for prevention of pulmonary embolism formation” (OTSUKA PHARMACEUTICAL FACTORY, INC., priority 2012, dated 2019)",
  "test": "Preventive effect against pulmonary embolism formation (no method given)",
  "conditions": "stated as demonstrated by the present inventors, no data given",
  "data": [
    {"substance": "dextran", "values": [
      {"measurement": "preventive effect against pulmonary embolism formation (in words)", "result": "demonstrated to have a preventive effect against pulmonary embolism formation"}
    ]}
  ]
}
